From ChEMBL document CHEMBL1201862, “PubChem BioAssay data set” (2004) come the findings set out here.

Test systems include HOP-92; OVCAR-8; UACC-62; UO-31; HCT-15; SK-MEL-2; SK-MEL-5; KM12; OVCAR-3; OVCAR-4; HL-60; LOX IMVI; CAKI-1; RPMI-8226; RXF 393; SK-OV-3; SR.
Holding throughout (assay): growth of human tumour cells (NCI), 48 h

Each structure is given as a SMILES string.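 Cells were grown in 96-well plates and exposed to each compound for 48 hours at five concentrations; endpoints were interpolated linearly between bracketing concentrations, or set to the highest concentration if not reached. GI50 is the concentration that inhibits growth by half.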 Activity calls are given as the source filed them. Cut-off read from the data, not from the text of the source: active = GI50 up to about 1.1 µM and inactive = higher. Some results are limits rather than exact numbers.

Regarding `CC1=C(Cl)C=CP(=O)(Oc2ccccc2)C1` (stereo not given), the GI50 with HOP-92 was > 100 µM (inactive); in the assay on OVCAR-8 it was 23.3 µM (inactive); with UACC-62, 43.2 µM (inactive); in the assay with UO-31 it was 38.3 µM (inactive); with HCT-15, 74.3 µM; in the assay with SK-MEL-2, 41.3 µM (inactive). Further, the GI50 was 55.6 µM (inactive) in the assay on SK-MEL-5; > 100 µM (inactive) in the assay with KM12; > 100 µM (inactive) in the assay on OVCAR-3; > 100 µM (inactive) in the assay with OVCAR-4; > 10 µM (inactive) in the assay with HL-60; 33 µM (inactive) with LOX IMVI. Also, the GI50 in the assay on CAKI-1 was > 100 µM (inactive).

Turning to `C[C@]12CCc3nonc3C1CC[C@@H]1C2CC[C@]2(C)C(=O)CCC12` (stereo not given in full), the GI50 with HOP-92 was 20 µM (inactive); in the assay with OVCAR-8 it was 31.2 µM (inactive); in the assay with UACC-62 it was 21.7 µM (inactive); in the assay on UO-31, 20.6 µM (inactive); with HCT-15, 31.2 µM; in the assay on SK-MEL-2, 24.5 µM (inactive). For the same compound, the GI50 with SK-MEL-5 was 17.5 µM (inactive); in the assay on KM12, 20.9 µM (inactive); with OVCAR-3, 25.5 µM (inactive); with OVCAR-4, > 100 µM (inactive); in the assay with HL-60, 15.5 µM (inactive); in the assay with RPMI-8226 it was 17.5 µM (inactive). The GI50 in the assay on RXF 393 is 35.2 µM (inactive); in the assay with LOX IMVI, 21.5 µM (inactive); with SK-OV-3 it was 33 µM (inactive); in the assay with CAKI-1 it was 14.8 µM (inactive).

Turning to `COC(=O)C(=O)C(C(=O)C(=O)Nc1ccc([N+](=O)[O-])cc1[N+](=O)[O-])c1nc2ccc([N+](=O)[O-])cc2nc1O` (stereo not given), the GI50 in the assay with HOP-92 was > 100 µM (inactive); with OVCAR-8, > 100 µM (inactive); with UACC-62 it was > 100 µM (inactive); in the assay on UO-31, 53 µM (inactive); in the assay with HCT-15 it was more than 100 µM; with KM12, > 100 µM (inactive). Moreover, the GI50 in the assay with OVCAR-3 is > 100 µM (inactive); in the assay on OVCAR-4, > 100 µM (inactive); in the assay on HL-60, > 100 µM (inactive); with RPMI-8226 it was > 100 µM (inactive); in the assay on RXF 393, 43.3 µM (inactive); with LOX IMVI, > 100 µM (inactive). Further, the GI50 was > 100 µM (inactive) with SK-OV-3, > 100 µM (inactive) in the assay with CAKI-1 and 43 µM (inactive) in the assay with SR.

Regarding `C=CCN1C(=O)NC(=O)/C(=C/c2c3ccccc3cc3ccccc23)C1=O`, the GI50 in the assay on HOP-92 is 20.4 µM (inactive); in the assay with OVCAR-8, 22.4 µM (inactive); with UACC-62 it was 18 µM (inactive); with UO-31, 20.6 µM (inactive); in the assay on SK-MEL-2, 19.6 µM (inactive); in the assay with SK-MEL-5 it was > 10 µM (inactive). In addition, the GI50 in the assay with KM12 is 16.2 µM (inactive); in the assay on OVCAR-3, 18.9 µM (inactive); in the assay on OVCAR-4, 22.2 µM (inactive); with RXF 393, 15.3 µM (inactive); in the assay on LOX IMVI it was 27.6 µM (inactive); with SK-OV-3 it was 29.9 µM (inactive). The GI50 was 19.5 µM (inactive) in the assay on CAKI-1 and 23.9 µM (inactive) in the assay on SR.

Consider `CC(C)(C)C(=O)OCC1CCC(n2cnc3c(=O)[nH]c(N)nc32)O1` (stereo not given), for which the GI50 is > 100 µM (inactive) with HOP-92; > 100 µM (inactive) in the assay with OVCAR-8; > 100 µM (inactive) in the assay on UACC-62; > 100 µM (inactive) in the assay on UO-31; more than 100 µM with HCT-15; > 100 µM (inactive) in the assay on SK-MEL-2. The GI50 in the assay on SK-MEL-5, with KM12, in the assay on OVCAR-3, with OVCAR-4, with RPMI-8226 and with LOX IMVI was > 100 µM (inactive) each time. In addition, the GI50 in the assay with SK-OV-3 and in the assay with CAKI-1 was > 100 µM (inactive) each time.

For the compound `COc1ccc(Sc2ccccc2[N+](=O)[O-])cc1`, the GI50 was 18.7 µM (inactive) in the assay with HOP-92; 30.8 µM (inactive) in the assay on OVCAR-8; 7.87 µM (inactive) with UACC-62; 23.4 µM (inactive) in the assay with UO-31; 5.86 µM in the assay on HCT-15; 32.1 µM (inactive) with SK-MEL-2. In addition, the GI50 in the assay on SK-MEL-5 was 45.9 µM (inactive); with KM12, 6.44 µM (inactive); with OVCAR-3, 12.4 µM (inactive); with OVCAR-4, 65.3 µM (inactive); in the assay with HL-60, 3.78 µM (inactive); in the assay on RPMI-8226, 25.5 µM (inactive). Also, the GI50 is 10.2 µM (inactive) in the assay with RXF 393, 12.9 µM (inactive) in the assay with LOX IMVI, 39.1 µM (inactive) with SK-OV-3 and 17.1 µM (inactive) in the assay on SR.

Consider `C/C(=N\NC(=O)C[N+](C)(C)C)c1sc(-c2cccnc2)nc1C`, for which the GI50 was 24.9 µM (inactive) in the assay on HOP-92; > 100 µM (inactive) in the assay on OVCAR-8; > 100 µM (inactive) with UACC-62; 41.2 µM (inactive) with UO-31; > 100 µM (inactive) in the assay with SK-MEL-2; > 100 µM (inactive) with SK-MEL-5. Also, the GI50 in the assay with KM12 was > 100 µM (inactive); in the assay with OVCAR-3, > 100 µM (inactive); in the assay with HL-60 it was > 100 µM (inactive); with RPMI-8226, > 100 µM (inactive); with RXF 393 it was 52.1 µM (inactive); in the assay with LOX IMVI it was > 100 µM (inactive). Moreover, in the assay with SK-OV-3, the GI50 is > 100 µM (inactive).

Turning to `CCCCN(CCCC)C(=O)C(=O)C(C(=O)c1ccc(OC)cc1)c1ccc(OC)cc1` (stereo not given), the GI50 in the assay with HOP-92 is 27.4 µM (inactive); with OVCAR-8 it was > 100 µM (inactive); in the assay on UACC-62, 56.4 µM (inactive); with UO-31, > 100 µM (inactive); in the assay on HCT-15, more than 100 µM; in the assay with SK-MEL-2 it was > 100 µM (inactive). The GI50 is 69 µM (inactive) with SK-MEL-5; > 100 µM (inactive) in the assay on KM12; > 100 µM (inactive) with OVCAR-3; > 100 µM (inactive) in the assay on OVCAR-4; > 100 µM (inactive) in the assay on HL-60; 35.5 µM (inactive) in the assay on RXF 393. Further, the GI50 in the assay with LOX IMVI, with SK-OV-3 and with CAKI-1 was > 100 µM (inactive) throughout.

On to `O=C(c1ccccc1)c1c(CC(O)c2ccncc2)n(C(=O)c2ccccc2)c2ccccc12` (stereo not given), for which the GI50 is 15 µM (inactive) with HOP-92; 30 µM (inactive) in the assay with OVCAR-8; 16.5 µM (inactive) in the assay on UACC-62; 14.6 µM (inactive) in the assay on UO-31; 17.4 µM in the assay with HCT-15; 16 µM (inactive) with SK-MEL-2. Further, the GI50 in the assay on SK-MEL-5 is 16.1 µM (inactive); in the assay with KM12, 19.2 µM (inactive); in the assay on OVCAR-3 it was 14 µM (inactive); in the assay on OVCAR-4, 15.8 µM (inactive); in the assay on HL-60, 18.2 µM (inactive); with RPMI-8226, 19.6 µM (inactive). The results for the GI50 in the assay with CAKI-1 and in the assay with SR were 22.3 µM (inactive) and 16.6 µM (inactive), respectively.

For the compound `CN(C(=O)c1ccco1)C(=S)N1CCN(c2ccccn2)CC1`, the GI50 was > 100 µM (inactive) in the assay on HOP-92; > 100 µM (inactive) in the assay on OVCAR-8; > 100 µM (inactive) in the assay with UACC-62; > 100 µM (inactive) in the assay on UO-31; more than 100 µM in the assay with HCT-15; > 100 µM (inactive) in the assay with SK-MEL-2. For the same compound, the GI50 in the assay on SK-MEL-5, in the assay on KM12, in the assay on OVCAR-3, with OVCAR-4, with HL-60 and in the assay with RPMI-8226 was > 100 µM (inactive) each time. Further, the GI50 with RXF 393, with LOX IMVI, with SK-OV-3 and in the assay with CAKI-1 was > 100 µM (inactive) each time.

For `O=C(CCC(=O)Nc1ccc(Cl)c(Cl)c1)CC(=O)c1ccc2ccccc2c1`, the GI50 in the assay on HOP-92 is > 100 µM (inactive); with OVCAR-8, > 100 µM (inactive); with UACC-62 it was 17.2 µM (inactive); in the assay with UO-31 it was > 100 µM (inactive); with HCT-15, 39.8 µM; with SK-MEL-2, 41.8 µM (inactive). The GI50 in the assay with SK-MEL-5 is > 100 µM (inactive); in the assay with KM12 it was 82 µM (inactive); with OVCAR-3, > 100 µM (inactive); with OVCAR-4 it was > 100 µM (inactive); with HL-60, > 100 µM (inactive); with RPMI-8226, 39.8 µM (inactive). For the same compound, the GI50 with RXF 393 was > 100 µM (inactive); in the assay on LOX IMVI, > 100 µM (inactive); in the assay with CAKI-1 it was 83 µM (inactive).

Turning to `NC(=O)c1ncn(Cc2ccccc2)c1CNC(N)=S`, the GI50 in the assay on OVCAR-8 was > 100 µM (inactive); in the assay on UACC-62, > 100 µM (inactive); in the assay with UO-31, > 100 µM (inactive); in the assay with HCT-15, more than 100 µM; with SK-MEL-5, > 100 µM (inactive); in the assay on KM12 it was > 100 µM (inactive). In addition, the GI50 with OVCAR-3, in the assay with OVCAR-4, in the assay on HL-60, with RPMI-8226, in the assay with RXF 393 and with LOX IMVI was > 100 µM (inactive) throughout. The GI50 in the assay with SK-OV-3 and with SR was > 100 µM (inactive) each time.

Regarding `N=C(NC(=N)Nc1ccc(S(=O)(=O)Nc2cnc3ccccc3n2)cc1)Nc1ccc(Br)cc1`, the GI50 in the assay with HOP-92 was > 100 µM (inactive); in the assay with OVCAR-8 it was > 100 µM (inactive); in the assay on UACC-62, > 100 µM (inactive); in the assay on UO-31, > 100 µM (inactive); with HCT-15 it was more than 100 µM; in the assay on SK-MEL-2 it was > 100 µM (inactive). Also, the GI50 in the assay with SK-MEL-5, in the assay on KM12, in the assay with OVCAR-3, in the assay on OVCAR-4, in the assay on RPMI-8226 and in the assay with LOX IMVI was > 100 µM (inactive) in each case. The GI50 in the assay on SK-OV-3, with CAKI-1 and with SR was > 100 µM (inactive) in each case.
